From US11076595B2, “1-(n,n-disubstituted carbamoyl) 4-(substituted sulfonyl)triazolin-5-one derivative, 4-(n,n-disubstituted carbamoyl) 1-(substituted sulfonyl)triazolin-5-one derivative, and herbicide containing said derivative as active ingredient” (HOKKO CHEMICAL INDUSTRY CO., LTD., priority 2017, dated 2021)

Columns and labels:
Experiment in all cases: Test Example 11: herbicidal effect test by soil treatment in paddy field
Assay type in all cases: in vivo
Details in all cases: 120 g/10a active ingredient, 14 days after treatment
Monochoria vaginalis = test system: Monochoria vaginalis
Description: (§1) A Wagner pot having an area of 1/10000 are was filled with paddy field soil and after adding water, a chemical fertilizer (N:P:K=17:17:17) was mixed, followed by puddling. Thereafter, 30 grains of each of Echinochloa crus-galli, broad-leaved weed (Lindernia pyxidaria, Monochoria vaginalis) and Scirpus juncoides seeds were sown to a depth of 0 to 1 cm. Immediately after the sowing, the pot was flooded, and the depth of water was kept at about 3 cm. The pot was subsequently managed in a glass greenhouse. Just after that, an emulsifiable concentrate prepared according to Formulation Example 15 by using the compound shown in Table 9 below was diluted with water, and a predetermined amount of the water-diluted formulation was added dropwise. The application rate of the active ingredient, by conversion, corresponded to 120 g per 10 are.
(§2) This test was performed with two replications per one formulation concentration plot, and 14 days after the formulation treatments, the weed suppression rate (%) was determined according to the following equation (Math. 2). Weed suppression rate (%)=(1−average dry weight (g) of plants in treated plots/average dry weight (g) of plants in untreated plots)×100 [Math. 2]

Echinochloa crus-galli = test system: Echinochloa crus-galli
Description: as §1, §2

Scirpus juncoides = test system: Scirpus juncoides
Description: as §1, §2

Lindernia pyxidaria = test system: Lindernia pyxidaria
Description: as §1, §2

| Compound | Weed suppression rate (%) Monochoria vaginalis (Monochoria vaginalis) | Weed suppression rate (%) Echinochloa crus-galli (Echinochloa crus-galli) | Weed suppression rate (%) Scirpus juncoides (Scirpus juncoides) | Weed suppression rate (%) Lindemia pyxidaria (Lindernia pyxidaria) |
| --- | --- | --- | --- | --- |
| CC(C)N(C(=O)n1cnn(S(=O)(=O)CCl)c1=O)c1ccc(C(F)(F)F)cc1F [Compound 11-126] | 60% | 100% | 30% | 100% |
| Cc1cc(F)ccc1N(C(=O)n1cnn(S(=O)(=O)c2ccccc2F)c1=O)C(C)C [Compound 11-415] | 70% | 80% | 30% | 70% |
| CC(C)N(C(=O)n1cnn(S(=O)(=O)c2cccc(F)c2)c1=O)c1ccc(F)cc1Cl [Compound 11-445] | 60% | 100% | 100% | 70% |
| Cc1cc(Cl)ccc1N(C(=O)n1cnn(S(=O)(=O)c2ccc(F)cc2)c1=O)C(C)C [Compound 11-490] | 80% | 90% | 90% | 80% |
| Cc1cc(F)ccc1N(C(=O)n1cnn(S(=O)(=O)c2ccccc2Cl)c1=O)C(C)C [Compound 11-525] | 90% | 60% | 60% | 90% |
| Cc1cc(Cl)ccc1N(C(=O)n1cnn(S(=O)(=O)c2ccccc2Cl)c1=O)C(C)C [Compound 11-527] | 80% | 90% | 90% | 80% |
| CC(C)N(C(=O)n1cnn(S(=O)(=O)c2cccc(Cl)c2)c1=O)c1ccccc1 [Compound 11-539] | 40% | 80% | 40% | 90% |
| CC(C)N(C(=O)n1cnn(S(=O)(=O)c2cccc(Cl)c2)c1=O)c1cccc(F)c1F [Compound 11-549] | 100% | 80% | 100% | 90% |
| CC(C)N(C(=O)n1cnn(S(=O)(=O)c2cccc(Cl)c2)c1=O)c1ccc(Cl)cn1 [Compound 11-574] | 40% | 90% | 50% | 80% |
| CCN(CC)C(=O)n1cnn(S(=O)(=O)c2ccc(Cl)cc2)c1=O [Compound 11-576] | 0% | 40% | 0% | 0% |
| CC(C)N(C(=O)n1cnn(S(=O)(=O)c2ccc(Cl)cc2)c1=O)c1ccccc1 [Compound 11-577] | 0% | 40% | 0% | 60% |
| CC(C)N(C(=O)n1cnn(S(=O)(=O)c2ccc(Cl)cc2)c1=O)c1ccccc1F [Compound 11-578] | 80% | 90% | 90% | 80% |
| CC(C)N(C(=O)n1cnn(S(=O)(=O)c2ccc(Cl)cc2)c1=O)c1c(F)c(F)cc(F)c1F [Compound 11-593] | 60% | 80% | 30% | 70% |
| CC(C)N(C(=O)n1cnn(S(=O)(=O)c2ccc(Cl)cc2)c1=O)c1ccc(F)cc1Cl [Compound 11-595] | 70% | 90% | 60% | 90% |
| Cc1ccc(S(=O)(=O)n2ncn(C(=O)N(c3ccc(Cl)cc3Br)C(C)C)c2=O)cc1 [Compound 11-649] | 60% | 90% | 60% | 70% |
| Cc1ccc(S(=O)(=O)n2ncn(C(=O)N(c3ccc(Cl)cc3C)C(C)C)c2=O)cc1 [Compound 11-652] | 80% | 90% | 90% | 80% |
| CC(C)N(C(=O)n1cnn(S(=O)(=O)c2ccc(C(C)(C)C)cc2)c1=O)c1ccc(Br)cc1Cl [Compound 11-693] | 60% | 80% | 60% | 60% |
| CC(C)N(C(=O)n1cnn(S(=O)(=O)c2ccc(C(C)(C)C)cc2)c1=O)c1ccc(C(F)(F)F)cc1F [Compound 11-699] | 70% | 90% | 30% | 90% |
| CC(C)N(C(=O)n1cnn(S(=O)(=O)c2cccc(C(F)(F)F)c2)c1=O)c1ccc(F)c(F)c1F [Compound 11-726] | 30% | 100% | 30% | 90% |
| CC(C)N(C(=O)n1cnn(S(=O)(=O)c2cccc(C(F)(F)F)c2)c1=O)c1c(F)cc(F)cc1F [Compound 11-727] | 60% | 90% | 80% | 80% |
| CC(C)N(C(=O)n1cnn(S(=O)(=O)c2ccc(C(F)(F)F)cc2)c1=O)c1ccc(F)cc1F [Compound 11-749] | 70% | 60% | 70% | 70% |
| CC(C)N(C(=O)n1cnn(S(=O)(=O)c2c(F)cccc2F)c1=O)c1ccc(F)cc1Cl [Compound 11-780] | 60% | 60% | 100% | 100% |
| Cc1ccc(N(C(=O)n2cnn(S(=O)(=O)c3c(F)cccc3F)c2=O)C(C)C)c(F)c1 [Compound 11-787] | 80% | 90% | 90% | 80% |
| CC(C)N(C(=O)n1cnn(S(=O)(=O)c2c(F)cccc2F)c1=O)c1ccc(C(F)(F)F)cc1F [Compound 11-790] | 30% | 80% | 90% | 90% |
| CC(C)N(C(=O)n1cnn(S(=O)(=O)c2c(F)c(F)c(F)c(F)c2F)c1=O)c1ccc(F)c(F)c1F [Compound 11-814] | 70% | 70% | 30% | 90% |
| Cc1cc(C)c(S(=O)(=O)n2ncn(C(=O)N(c3c(F)cccc3F)C(C)C)c2=O)c(C)c1 [Compound 11-865] | 70% | 80% | 70% | 70% |
| Cc1cc(C)c(S(=O)(=O)n2ncn(C(=O)N(c3ccc(Cl)cc3C)C(C)C)c2=O)c(C)c1 [Compound 11-878] | 80% | 90% | 90% | 80% |
| Cc1cc(C)c(S(=O)(=O)n2ncn(C(=O)N(c3ccc(C(F)(F)F)cc3F)C(C)C)c2=O)c(C)c1 [Compound 11-880] | 100% | 80% | 30% | 80% |
